In patent US20060063711A1, “Use of sglt homolog” (priority 2002, published 2006):

Tests used:
Format in all cases: cell-based
[1] = target: T1, human SGLT homolog (hSGLTh) (Homo sapiens, UniProt Q2M3M2, I269M); assay: α-methyl glucose uptake in CHO cells expressing hSGLTh; settings: for Uptake of α-Methyl Glucose (% based on Control Group): hSGLTh CHO cells, control = NMDG without NaCl
T1 construct: expressed in transfected cells; host or cells: CHO cells
T1 sequence (Q2M3M2 8-681 I269M limits assumed): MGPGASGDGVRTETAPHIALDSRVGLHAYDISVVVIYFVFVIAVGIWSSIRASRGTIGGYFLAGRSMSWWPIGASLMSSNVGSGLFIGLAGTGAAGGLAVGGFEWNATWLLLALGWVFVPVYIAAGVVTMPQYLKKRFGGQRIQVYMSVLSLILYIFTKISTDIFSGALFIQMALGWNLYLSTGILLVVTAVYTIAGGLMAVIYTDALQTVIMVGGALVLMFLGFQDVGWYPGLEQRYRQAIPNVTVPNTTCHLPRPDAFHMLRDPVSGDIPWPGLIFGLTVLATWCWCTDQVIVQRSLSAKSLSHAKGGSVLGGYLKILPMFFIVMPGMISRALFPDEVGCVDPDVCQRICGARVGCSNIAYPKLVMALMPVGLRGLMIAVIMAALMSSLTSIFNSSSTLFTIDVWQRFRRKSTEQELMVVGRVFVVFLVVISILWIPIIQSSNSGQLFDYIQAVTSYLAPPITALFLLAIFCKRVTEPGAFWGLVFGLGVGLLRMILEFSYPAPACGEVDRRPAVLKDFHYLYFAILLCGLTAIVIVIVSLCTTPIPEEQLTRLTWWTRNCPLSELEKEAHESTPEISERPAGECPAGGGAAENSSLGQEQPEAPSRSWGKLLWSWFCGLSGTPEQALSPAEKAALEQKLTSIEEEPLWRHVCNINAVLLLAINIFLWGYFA
Method: (§1) In accordance with the procedures described in Example 4 of WO 02/53738, the CHO cell lines expressing the human SGLT homolog (hSGLTh), mouse SGLT homolog (mSGLTh), rat SGLT homolog (rSGLTh), human SGLT1 (hSGLT1) and human SGLT2 (hSGLT2) were prepared, respectively, and used for experiments. The experimental uptake of α-methyl glucose, which is a glucose analog selectively taken up into the cells by SGLT, was carried out according to the method described in Am. J. Physiol., 270: G833-G843, 1996 and J. Clin. Invest., 93: 397-404, 1994. The cells were plated on 100 μl of DMEM containing 10% FBS charged in a 96-well plate in a cell density of 1×10^5 cells/well, followed by culturing overnight at 37° C. The cells were washed 3 times with 150 μl of a buffer solution (125 mM N-Methyl-D-Glucamine, 1.2 mM KH2PO4, 2.5 mM CaCl2, 1.2 mM MgSO4, 4 mM Glutamine, 10 mM HEPES (pH 7.2), 0.1 mg/ml BSA) and cultured for an hour in the same buffer solution to remove the remaining glucose. The buffer solution was removed and replaced with 90 μl of the same buffer solution or the buffer solution containing NaCl or NaCl+Phlorizin (Sigma) in place of N-Methyl-D-Glucamine (NMDG). After one-hour incubation with 10 μl of 1 mM α-methyl glucose (containing 0.02 μCi of [^14C]-α-Methyl Glucose (Amersham Pharmacia Biotech)) per well, the cells were washed 3 times with 200 μl of chilled PBS buffer. The radioactivity of ^14C taken up into the cells was counted with 100 μl of a liquid scintillator added per well.

[2] = target: T2, mouse SGLT homolog (mSGLTh) (Mus musculus, UniProt Q8VDT1); assay: α-methyl glucose uptake in CHO cells expressing mSGLTh; settings: for Uptake of α-Methyl Glucose (% based on Control Group): mSGLTh CHO cells, control = NMDG without NaCl
T2 construct: expressed in transfected cells; host or cells: CHO cells
T2 sequence (Q8VDT1 8-685 limits assumed): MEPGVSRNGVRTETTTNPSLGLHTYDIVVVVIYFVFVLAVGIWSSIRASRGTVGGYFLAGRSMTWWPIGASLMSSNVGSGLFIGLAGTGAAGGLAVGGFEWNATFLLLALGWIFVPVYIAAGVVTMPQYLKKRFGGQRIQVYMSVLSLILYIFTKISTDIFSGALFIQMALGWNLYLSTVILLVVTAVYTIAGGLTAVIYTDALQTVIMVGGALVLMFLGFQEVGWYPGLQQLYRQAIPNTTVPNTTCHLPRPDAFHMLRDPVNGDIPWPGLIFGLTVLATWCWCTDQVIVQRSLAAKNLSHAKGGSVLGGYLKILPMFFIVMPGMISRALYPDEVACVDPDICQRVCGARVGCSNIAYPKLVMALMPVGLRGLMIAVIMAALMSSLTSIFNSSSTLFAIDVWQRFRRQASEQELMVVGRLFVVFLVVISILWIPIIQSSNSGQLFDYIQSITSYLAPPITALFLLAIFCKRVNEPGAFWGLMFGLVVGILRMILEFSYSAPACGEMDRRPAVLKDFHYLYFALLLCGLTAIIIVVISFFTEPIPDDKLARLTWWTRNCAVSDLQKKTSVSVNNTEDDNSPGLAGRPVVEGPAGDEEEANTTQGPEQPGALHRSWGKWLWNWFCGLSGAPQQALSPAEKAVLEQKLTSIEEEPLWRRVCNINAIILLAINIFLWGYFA
Method: as §1

[3] = tested on: rat SGLT homolog (rSGLTh); assay: α-methyl glucose uptake in CHO cells expressing rSGLTh; settings: control = NMDG without NaCl
Method: as §1, with “After one-hour incubation with 10 μl of 1 mM α-methyl glucose (containing 0.02 μCi of [^14C]-α-Methyl Glucose (Amersham Pharmacia Biotech)) per well, the cells were washed 3 times with 200 μl of chilled PBS buffer.” left out

## O=C(CCc1ccc(O)cc1)c1c(O)cc(O)cc1O[C@@H]1O[C@H](CO)[C@@H](O)[C@H](O)[C@H]1O [phlorizin]
[1]; NaCl + 3 μM phlorizin
  Uptake of α-Methyl Glucose (% based on Control Group): 570 ± 142%
[1]; NaCl + 100 μM phlorizin
  Uptake of α-Methyl Glucose (% based on Control Group): 124 ± 19%
[1]; human SGLT homolog compared with SGLT1 and SGLT2
  resistance to phlorizin: more potent than in SGLT1 and SGLT2
[2]; NaCl + 15 μM phlorizin
  Uptake of α-Methyl Glucose (% based on Control Group): 521 ± 35%
[2]; NaCl + 500 μM
  Uptake of α-Methyl Glucose (% based on Control Group): 78 ± 8%
[2]; mouse SGLT homolog compared with SGLT1 and SGLT2
  resistance to phlorizin: more potent than in SGLT1 and SGLT2
[3]; NaCl + 15 μM phlorizin
  Uptake of α-Methyl Glucose (% based on Control Group): 643 ± 76%
[3]; NaCl + 500 μM
  Uptake of α-Methyl Glucose (% based on Control Group): 118 ± 6%
